For the experiment, the target named is T1, β-glucocerebrosidase (Homo sapiens, UniProt P04062, L483P).
T1 construct: host or cells: human Gaucher disease patient fibroblasts GM08760A
T1 sequence (P04062 40-536 L483P): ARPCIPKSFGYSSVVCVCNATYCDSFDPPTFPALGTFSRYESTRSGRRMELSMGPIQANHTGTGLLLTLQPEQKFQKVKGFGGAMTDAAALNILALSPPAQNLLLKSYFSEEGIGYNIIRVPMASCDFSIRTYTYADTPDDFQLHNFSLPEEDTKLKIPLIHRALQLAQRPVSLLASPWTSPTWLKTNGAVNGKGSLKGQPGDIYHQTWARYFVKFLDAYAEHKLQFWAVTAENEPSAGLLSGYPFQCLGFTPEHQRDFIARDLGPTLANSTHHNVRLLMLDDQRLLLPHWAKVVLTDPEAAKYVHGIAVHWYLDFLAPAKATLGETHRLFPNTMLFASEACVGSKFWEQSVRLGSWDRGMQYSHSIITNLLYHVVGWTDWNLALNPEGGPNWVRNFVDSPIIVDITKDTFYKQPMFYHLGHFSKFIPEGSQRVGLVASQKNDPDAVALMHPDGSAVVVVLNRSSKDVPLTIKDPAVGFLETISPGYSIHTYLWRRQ
The experiment is described as follows: Enhancement of β-glucocerebrosidase activity measured in Gaucher disease fibroblasts (4-MU-β-D-glucopyranoside substrate, intact cells). Format: cell-based. Details: key: Increase in comparison with non-treated of >2.0 fold is shown as A; Increase in comparison with non-treated of >1.7-2.0 fold is shown as B; Increase in comparison with non-treated of 1.2-1.7 fold is shown as C; D means that no increase compared with non-treated cells was detected in this method. The settings on record: GBA fibroblasts bearing L444P (GM08760A, homozygous p.L444P); compound at concentrations between 6 and 50 μM; 4 days incubation. How it is done:
Human fibroblasts from a patient with Gaucher disease homozygous for p.L444P mutation (GM08760A) were purchased from Coriell Institute for Medical Research (Camden, NJ, USA).
Fibroblasts were seeded at 5×10^3 cells per well in 96-well cell culture plates (Corning, NY, USA) in Dulbecco's Modified Eagle's Media (DMEM) supplemented with 10% of fetal bovine serum (FBS), 1% penicillin/streptomycin (P/S) (Thermo Fisher Scientific, Waltham, MA, USA) and grown at 37° C., 5% CO2 overnight for cell attachment. Subsequently, cells were incubated in the absence or presence of the compounds at the desired concentration for 4 days. After incubation, cells were washed twice with phosphate-buffered saline (PBS) and enzyme activity assay was performed.
β-glucocerebrosidase activity in intact cultured cells was measured by using 4-methylumbelliferyl-β-D-glucopyranoside substrate (Apollo Scientific, UK). Briefly, cells were incubated with 4-MU-β-D-glucopyranoside in 0.1 M acetate buffer pH=4 at 37° C. for 1 hour. The reaction was stopped by adding 200 μL at 100 mM glycine-NaOH pH=10.7. The liberated 4-MU was measured on a GloMax Discover plate reader (Promega, Madison, WI, USA) with and excitation at 340 nm and emission at 460 nm. Enzyme activities were expressed in treated cells as X-fold increase in comparison with non-treated cells (X=1 represents no enhancement).
The capacity of the compounds of the disclosure to produce an increase in enzyme activity in GBA fibroblasts bearing L444P at concentrations between 6 and 50 μM is denoted as follows: • Increase in comparison with non-treated of >2.0 fold is shown as A • Increase in comparison with non-treated of >1.7-2.0 fold is shown as B • Increase in comparison with non-treated of 1.2-1.7 fold is shown as C • D means that no increase compared with non-treated cells was detected in this method • ND means “not determined”

Structures are written as SMILES.

`CN(C(=O)c1cc(Nc2ccccc2O)nc(N)n1)C1Cc2ccccc2C1` [Example 82, 2-Amino-N-(2,3-dihydro-1H-inden-2-yl)-6-((2-hydroxyphenyl)amino)-N-methylpyrimidine-4-carboxamide]: the “Range: increase in enzyme activity in comparison with non-treated cells (Enzyme activity assay for compounds of Examples 33-141)” value is recorded as “C (Increase in comparison with non-treated of 1.2-1.7 fold is shown as C)”. As to `Nc1cc(Nc2ccccc2O)nc(C(=O)NC2Cc3ccccc3C2)n1` [Example 56, 4-Amino-N-(2,3-dihydro-1H-inden-2-yl)-6-((2-hydroxyphenyl)amino)pyrimidine-2-carboxamide], the “Range: increase in enzyme activity in comparison with non-treated cells (Enzyme activity assay for compounds of Examples 33-141)” value is “B (Increase in comparison with non-treated of >1.7-2.0 fold is shown as B)”. For `Nc1nc(Nc2ccccc2O)cc(C(=O)N2Cc3ccccc3C2)n1` [Example 86, (2-Amino-6-((2-hydroxyphenyl)amino)pyrimidin-4-yl)(isoindolin-2-yl)methanone], the “Range: increase in enzyme activity in comparison with non-treated cells (Enzyme activity assay for compounds of Examples 33-141)” value is “C (Increase in comparison with non-treated of 1.2-1.7 fold is shown as C)”. Turning to `CN(C(=O)c1cc(N)nc(N[C@H]2CCCC[C@@H]2O)n1)c1ccccc1` [Example 33, 6-Amino-2-(((1S,2S)-2-hydroxycyclohexyl)amino)-N-methyl-N-phenylpyrimidine-4-carboxamide], the “Range: increase in enzyme activity in comparison with non-treated cells (Enzyme activity assay for compounds of Examples 33-141)” value is reported as “D”. `COc1ccccc1Nc1cc(N)nc(C(=O)NC2Cc3ccccc3C2)c1` [Example 76, 6-Amino-N-(2,3-dihydro-1H-inden-2-yl)-4-((2-methoxyphenyl)amino)picolinamide]: the “Range: increase in enzyme activity in comparison with non-treated cells (Enzyme activity assay for compounds of Examples 33-141)” value is given as “D”. As to `Nc1cc(Nc2ccc(F)cc2O)cc(C(=O)NC2Cc3ccccc3C2)n1` [Example 69, 6-Amino-N-(2,3-dihydro-1H-inden-2-yl)-4-((4-fluoro-2-hydroxyphenyl)amino)picolinamide], the “Range: increase in enzyme activity in comparison with non-treated cells (Enzyme activity assay for compounds of Examples 33-141)” value is reported as “B (Increase in comparison with non-treated of >1.7-2.0 fold is shown as B)”. For `COc1ccccc1Nc1nc(N)c2c(n1)CN(Cc1ccccc1)CC2` [Example 28, 7-Benzyl-N2-(2-methoxyphenyl)-5,6,7,8-tetrahydropyrido[3,4-d]pyrimidine-2,4-diamine], the “Range: increase in enzyme activity in comparison with non-treated cells (Enzyme activity assay for exemplified compounds)” value is listed as “C (Increase in comparison with non-treated of 1.2-1.7 fold is shown as C)”. The same measure, in the same setting: the result for `Cc1ccc(Nc2nc(N)cc(C(=O)N3CCN(c4ccccc4)CC3)n2)cc1` [Example 3, (6-Amino-2-(p-tolylamino)pyrimidin-4-yl)(4-phenylpiperazin-1-yl)methanone] reads “C (Increase in comparison with non-treated of 1.2-1.7 fold is shown as C)”; that for `CN(Cc1ccccc1)C(=O)c1cc(N)nc(Nc2ccccc2O)n1` [Example 4, 6-Amino-N-benzyl-2-((2-hydroxyphenyl)amino)-N-methylpyrimidine-4-carboxamide], “C (Increase in comparison with non-treated of 1.2-1.7 fold is shown as C)”. Regarding `Cc1cccc(NC(=O)c2cc(N)cc(Nc3cccc(F)c3)n2)c1.Cl` [Example 136, 4-Amino-6-((3-fluorophenyl)amino)-N-(m-tolyl)picolinamide hydrochloride], the “Range: increase in enzyme activity in comparison with non-treated cells (Enzyme activity assay for compounds of Examples 33-141)” value is on record as “A (Increase in comparison with non-treated of >2.0 fold is shown as A)”. As to `Nc1cc(Nc2ccccc2O)cc(C(=O)NC2CCc3ccccc3C2)n1` (centres unmarked) [Example 127, 6-Amino-4-((2-hydroxyphenyl)amino)-N-(1,2,3,4-tetrahydronaphthalen-2-yl)picolinamide], the “Range: increase in enzyme activity in comparison with non-treated cells (Enzyme activity assay for compounds of Examples 33-141)” value is listed as “B (Increase in comparison with non-treated of >1.7-2.0 fold is shown as B)”. Consider `Nc1cc(Nc2cccc3c2OCO3)cc(C(=O)NC2Cc3ccccc3C2)n1` [Example 123, 6-Amino-4-(benzo[d][1,3]dioxol-4-ylamino)-N-(2,3-dihydro-1H-inden-2-yl)picolinamide], for which the “Range: increase in enzyme activity in comparison with non-treated cells (Enzyme activity assay for compounds of Examples 33-141)” value is given as “C (Increase in comparison with non-treated of 1.2-1.7 fold is shown as C)”. The same measure, in the same setting: the entry for `COc1ccccc1Nc1cc(N)cc(C(=O)N2Cc3ccccc3C2)n1` [Example 96, (6-(2-Methoxyphenylamino)-4-aminopyridin-2-yl)(isoindolin-2-yl)methanone] is “C (Increase in comparison with non-treated of 1.2-1.7 fold is shown as C)”. The same measure, in the same setting: the result for `Cc1cccc(Nc2cc(N)cc(C(=O)NC3Cc4ccccc4C3)n2)c1` [Example 97, 4-Amino-N-(2,3-dihydro-1H-inden-2-yl)-6-(m-tolylamino)picolinamide] reads “A (Increase in comparison with non-treated of >2.0 fold is shown as A)”. The same measure, in the same setting: the result for `Nc1cc(Nc2ccccc2F)nc(C(=O)NC2Cc3ccccc3C2)c1` [Example 71, 4-Amino-N-(2,3-dihydro-1H-inden-2-yl)-6-((2-fluorophenyl)amino)picolinamide] reads “B (Increase in comparison with non-treated of >1.7-2.0 fold is shown as B)”; that for `Nc1cc(Nc2ccccc2Cl)cc(C(=O)N2CCN(c3ccccc3)CC2)n1` [Example 60], “C (Increase in comparison with non-treated of 1.2-1.7 fold is shown as C)”. With `COc1ccccc1Nc1cc(N)nc(C(=O)N2CCN(c3ccccc3)CC2)c1` [Example 51, (6-Amino-4-((2-methoxyphenyl)amino)pyridin-2-yl)(4-phenylpiperazin-1-yl)methanone], the “Range: increase in enzyme activity in comparison with non-treated cells (Enzyme activity assay for compounds of Examples 33-141)” value is “C (Increase in comparison with non-treated of 1.2-1.7 fold is shown as C)”. Take `CN(C(=O)c1cc(N)cc(Nc2ccccc2F)n1)c1ccccc1` [Example 114, 4-Amino-6-((2-fluorophenyl)amino)-N-methyl-N-phenylpicolinamide]: the “Range: increase in enzyme activity in comparison with non-treated cells (Enzyme activity assay for compounds of Examples 33-141)” value was “D”.

For `Cc1ccccc1Nc1cc(N)cc(C(=O)NC2Cc3ccccc3C2)n1` [Example 87, 4-Amino-N-(2,3-dihydro-1H-inden-2-yl)-6-(o-tolylamino)picolinamide], the “Range: increase in enzyme activity in comparison with non-treated cells (Enzyme activity assay for compounds of Examples 33-141)” value is reported as “B (Increase in comparison with non-treated of >1.7-2.0 fold is shown as B)”. With `Nc1cc(Nc2ccccc2O)nc(C(=O)N2CCN(c3ccccc3)CC2)n1` [Example 125, (4-Amino-6-((2-hydroxyphenyl)amino)pyrimidin-2-yl)(4-phenylpiperazin-1-yl)methanone], the “Range: increase in enzyme activity in comparison with non-treated cells (Enzyme activity assay for compounds of Examples 33-141)” value is recorded as “C (Increase in comparison with non-treated of 1.2-1.7 fold is shown as C)”.

On to `Cc1cccc(Nc2nc(N)cc(C(=O)N3Cc4ccccc4C3)n2)c1` [Example 40, (6-Amino-2-(m-tolylamino)pyrimidin-4-yl)(isoindolin-2-yl)methanone], for which the “Range: increase in enzyme activity in comparison with non-treated cells (Enzyme activity assay for compounds of Examples 33-141)” value was “C (Increase in comparison with non-treated of 1.2-1.7 fold is shown as C)”. Consider `CN(C(=O)c1cc(N)nc(Nc2ccccc2O)c1)c1ccccc1` [Example 43, 2-Amino-6-((2-hydroxyphenyl)amino)-N-methyl-N-phenylisonicotinamide], for which the “Range: increase in enzyme activity in comparison with non-treated cells (Enzyme activity assay for compounds of Examples 33-141)” value is given as “C (Increase in comparison with non-treated of 1.2-1.7 fold is shown as C)”. On the same count and under the same terms, the result for `Nc1cc(Nc2cccc3c2OCO3)cc(C(=O)Nc2ccccc2)n1` [Example 73, 6-Amino-4-(benzo[d][1,3]dioxol-4-ylamino)-N-phenylpicolinamide] reads “C (Increase in comparison with non-treated of 1.2-1.7 fold is shown as C)”.

(Values after patent US12661342B2, “Heteroaryl compounds and therapeutic uses thereof in conditions associated with the alteration of the activity of beta-glucocerebrosidase” (GT GAIN THERAPEUTICS SA, priority 2019, dated 2026).)
